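Here, GI50 denotes the concentration required for 50% inhibition of growth. At the TGI there is no net growth.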
Columns and labels:
Assay in all cases: inhibition of tumour cell growth, NCI panel, 384-well format
[1] = system: 786-0 renal
[2] = system: A498 renal
[3] = system: A549 NSCLC
[4] = system: ACHN renal
[5] = system: BT-549 breast
[6] = system: CAKI-1 renal
[7] = system: COLO 205 colon
[8] = system: DU-145 prostate
[9] = system: EKVX NSCLC
[10] = system: HCT-116 colon
[11] = system: HCT-15 colon
[12] = system: HL-60(TB) leukemia
[13] = system: HOP-62 NSCLC
[14] = system: HOP-92 NSCLC
[15] = system: HS 578T breast
[16] = system: HT29 colon
[17] = system: IGROV1 ovarian
[18] = system: K-562 leukemia
[19] = system: KM12 colon
[20] = system: M14 melanoma
[21] = system: MALME-3M melanoma
[22] = system: MCF7 breast
[23] = system: MDA-MB-231 breast
[24] = system: MDA-MB-435 melanoma
[25] = system: MDA-MB-468 breast
[26] = system: MOLT-4 leukemia
[27] = system: NCI-H226 lung
[28] = system: NCI-H23 lung
[29] = system: NCI-H322M lung
[30] = system: NCI-H460 NSCLC
[31] = system: NCI-H522 lung
[32] = system: OVCAR-3 ovarian
[33] = system: OVCAR-4 ovarian
[34] = system: OVCAR-5 ovarian
[35] = system: OVCAR-8 ovarian
[36] = system: PC-3 prostate
[37] = system: RXF 393 renal
[38] = system: SF-268 CNS
[39] = system: SF-295 CNS
[40] = system: SF-539 CNS
[41] = system: SK-MEL-2 melanoma
[42] = system: SK-MEL-28 melanoma
[43] = system: SK-MEL-5 melanoma
[44] = system: SK-OV-3 ovarian
[45] = system: SN12C renal
[46] = system: SNB-19 CNS
[47] = system: SNB-75 CNS
[48] = system: SR leukemia
[49] = system: SW-620 colon
[50] = system: T-47D breast
[51] = system: TK-10 renal
[52] = system: U251 glioblastoma
[53] = system: UACC-257 melanoma
[54] = system: UACC-62 melanoma
[55] = system: UO-31 renal

CCc1cc2c(c(OCC(F)(F)F)c(C(=O)NC3CCN(C(=O)CO)CC3)n2C)c(=O)n1CC(=O)c1ccccc1
GI50 [1]: 18.4 µM
TGI [1]: 36.6 µM
GI50 [2]: 33.6 µM
TGI [2]: > 100 µM
GI50 [3]: 46.8 µM
TGI [3]: > 100 µM
GI50 [4]: 31.6 µM
TGI [4]: > 100 µM
GI50 [5]: 57.9 µM
TGI [5]: > 100 µM
GI50 [6]: 39.6 µM
TGI [6]: > 100 µM
GI50 [7]: > 100 µM
TGI [7]: > 100 µM
GI50 [8]: 82.5 µM
TGI [8]: > 100 µM
GI50 [9]: 40.3 µM
TGI [9]: > 100 µM
GI50 [10]: 35.6 µM
TGI [10]: > 100 µM
GI50 [11]: 61.9 µM
TGI [11]: > 100 µM
GI50 [12]: 25.3 µM
TGI [12]: 40.7 µM
GI50 [13]: 28.2 µM
TGI [13]: > 100 µM
GI50 [14]: 58.6 µM
TGI [14]: > 100 µM
GI50 [15]: 37.7 µM
TGI [15]: > 100 µM
GI50 [16]: 41.7 µM
TGI [16]: > 100 µM
GI50 [17]: 58.2 µM
TGI [17]: > 100 µM
GI50 [18]: 33.6 µM
TGI [18]: > 100 µM
GI50 [19]: 42.4 µM
TGI [19]: > 100 µM
GI50 [20]: > 100 µM
TGI [20]: > 100 µM
GI50 [21]: 73.9 µM
TGI [21]: > 100 µM
GI50 [22]: 9.23 µM
TGI [22]: > 100 µM
GI50 [23]: 37.7 µM
TGI [23]: > 100 µM
GI50 [24]: > 100 µM
TGI [24]: > 100 µM
GI50 [25]: 20.6 µM
TGI [25]: 79.2 µM
GI50 [26]: 18.3 µM
TGI [26]: 34.6 µM
GI50 [27]: 22.4 µM
TGI [27]: > 100 µM
GI50 [28]: 79.9 µM
TGI [28]: > 100 µM
GI50 [29]: 72.6 µM
TGI [29]: > 100 µM
GI50 [30]: 27.5 µM
TGI [30]: > 100 µM
GI50 [31]: 69.8 µM
TGI [31]: > 100 µM
GI50 [32]: 40 µM
TGI [32]: > 100 µM
GI50 [33]: 37.1 µM
TGI [33]: > 100 µM
GI50 [34]: > 100 µM
TGI [34]: > 100 µM
GI50 [35]: 54.2 µM
TGI [35]: > 100 µM
GI50 [36]: 42.1 µM
TGI [36]: > 100 µM
GI50 [37]: 1.91 µM
TGI [37]: 12.4 µM
GI50 [38]: 68.8 µM
TGI [38]: > 100 µM
GI50 [39]: 24.9 µM
TGI [39]: 98.7 µM
GI50 [40]: 37.8 µM
TGI [40]: > 100 µM
GI50 [41]: 30.1 µM
TGI [41]: > 100 µM
GI50 [42]: 38.9 µM
TGI [42]: > 100 µM
GI50 [43]: 23.2 µM
TGI [43]: > 100 µM
GI50 [44]: 45.8 µM
TGI [44]: > 100 µM
GI50 [45]: > 100 µM
TGI [45]: > 100 µM
GI50 [46]: > 100 µM
TGI [46]: > 100 µM
GI50 [47]: 54.9 µM
TGI [47]: > 100 µM
GI50 [48]: 17.3 µM
TGI [48]: 31.4 µM
GI50 [49]: 57 µM
TGI [49]: > 100 µM
GI50 [50]: 29.9 µM
TGI [50]: > 100 µM
GI50 [51]: 33.9 µM
TGI [51]: > 100 µM
GI50 [52]: 52.6 µM
TGI [52]: > 100 µM
GI50 [53]: 68.8 µM
TGI [53]: > 100 µM
GI50 [54]: 32.6 µM
TGI [54]: > 100 µM
GI50 [55]: 19.7 µM
TGI [55]: 51.6 µM

— PubChem BioAssay (NCI)
